Data set [1] addresses T1, acetyl-CoA carboxylase (ACC) (Rattus norvegicus, UniProt P11497).
T1 construct: subjected to decapitation and bloodletting under ether anesthesia to quickly take out the liver; from tissue; host or cells: rat liver (male SD rat, fasted then fed a high-sucrose feed)
The experiment in a line: Measurement of ACC inhibition activity (14C-bicarbonate incorporation, ACC purified from rat liver). Particulars: 5.6 × 10^−6 M compound; ACC purified from SD rat liver. The class given is biochemical. How it is done: After 2 days of fasting, a male SD rat of 12 weeks of age was allowed to feed on a high sucrose feed (67% sucrose, 17.1% casein, 9.8% cellulose, 5% sodium chloride, 0.1% choline chloride and 1% vitamins) for 2 days and then subjected to decapitation and bloodletting under ether anesthesia to quickly take out the liver. The thus obtained liver was sliced in an ice-cooled buffer A (225 mM mannitol, 75 mM sucrose, 10 mM Tris/HCl (pH 7.5), 0.05 mM EDTA-2Na, 5 mM potassium citrate, 2.5 mM MnCl2, 10 mg/l aprotinin, 10 mg/l leupeptin and 10 mg/l antitrypsin) and then, after removal of moisture, adjusted to 5 ml/g by adding the buffer A and homogenized for 4 minutes using Polytron homogenizer. This was centrifuged for 10 minutes at 1,000 g and then the resulting supernatant was subjected to 10 minutes of high speed centrifugation at 17,000 g.
Ammonium sulfate was added to the thus obtained supernatant to a final concentration of 35%, and the mixture was stirred for 45 minutes and then subjected to 10 minutes of high speed centrifugation at 17,000 g. The thus obtained precipitate was mixed with 100 ml of a buffer B (100 mM Tris/HCl (pH 7.5), 0.5 M NaCl, 1 mM EDTA-2Na, 0.1 mM DTT, 10% glycerol, 10 mg/l aprotinin, 10 mg/l leupeptin and 10 mg/l antitrypsin) and subjected to 20 minutes of ultracentrifugation at 40,000, and the resulting supernatant was dialyzed overnight against 150 volumes of a buffer C (100 mM Tris/HCl (pH 7.5), 0.5 M NaCl, 1 mM EDTA-2Na, 0.1 mM DTT and 10% glycerol) and then filtered through a 5 μm filter. The filtrate was applied to a biotin affinity column, washed with the buffer B and then eluted with the buffer B supplemented with 5 mM biotin.
2. Measurement of ACC Inhibition Activity
Each of the compounds produced in the Examples was dissolved in DMSO, and the solution was put into a glass vial, mixed with 250 μl of an ACC-containing reagent 1 (40 mM Tris/HCl (pH 7.5), 40 mM MgCl2, 40 mM sodium citrate, 2 mM DTT and 100 μg/ml fatty acid-free BSA),incubated at 37° C. for 30 minutes in a thermostatic chamber, cooled with ice, mixed with 250 μl of a reagent 2 (40 mM Tris/HCl (pH 7.5), 2 mM DTT, 8 mM ATP and 0.5 mM acetyl-CoA) containing 74 kBq of NaH^14CO3, again incubated at 37° C. for 10 minutes in a thermostatic chamber and then mixed with 0.1 ml of 1 N HCl to terminate the reaction. After complete removal of moisture in the glass vial under a reduced pressure, an emulsified scintillator (Cleasol I) was added to the glass vial, and the ^14C radioactivity was measured using a liquid scintillation counter. […]
Inhibition activity ratio (%)=(1−radioactivity when a drug to be tested is added/radioactivity when the drug to be rested is not added)×100

A further data set concerns HepG2 cells. In words: Measurement of intracellular fatty acid synthesis inhibition activity (FA biosynthesis from [14C]-glucose). Particulars: Homo sapiens, 3.0 × 10^−5 M compound, 3 hours culture with [14C]-glucose. Format: cell-based. How it is done:
Measurement of Intracellular Fatty Acid Synthesis Inhibition Activity (FA Biosynthesis Inhibition Activity)
Each of the compounds produced in the Examples was dissolved in DMSO and added to an experimental culture medium (DMEM; 0.05 μg/ml insulin, 0.1 mg/ml glucose and 18.5 kBq/ml [^14C]-glucose). The HepG2 cells were adjusted to a density of 0.75×10^6 cells/ml, inoculated into a 12 well plate in an amount of 1 ml/well and cultured overnight at 37° C. in an atmosphere of 5% CO2 (culture medium: DMEM, […] and 10% FBS), and the resulting cells were washed twice with PBS(−) buffer, mixed with the experimental culture medium in an amount of 0.5 ml/well and then cultured at 37° C. for 3 hours in an atmosphere of 5% CO2. After the culturing, the cells were washed twice with ice-cooled PBS(−) buffer and peeled off, and lipids were extracted from the resulting cells with a lipid extraction solution (chloroform:methanol=2:1). The extract was mixed with 2.5 ml of ethanol and 0.1 ml of 33% potassium hydroxide and incubated at 70° C. for 1 hour. Lipids were again extracted from the reaction mixture, and the extract was applied to a silica gel thin layer plate. This was developed with a developing solution (hexane:diethyl ether:acetic acid=80:20:1) and then the fatty acid iodine-coloring part was collected to measure its radioactivity using a liquid scintillation counter. The inhibition activity % (3.0×10^−5 M) of each compound was calculated.

SMILES strings stand for the structures.

On to `O=C(Nc1ccccc1S(=O)(=O)NC(=O)c1ccccc1)c1cccc(OCc2ccccc2)c1` [Example 2, N-[2-(3-Benzyloxybenzamido)benzenesulfonyl]benzamide], for which the melting point fell in the range of 201 to 202 °C. This molecule also registered an inhibition at 5.6 µM in data set [1] of 60.7%. The same molecule displayed an inhibition at 30 µM in the data set with HepG2 cells of 43.8%.
Taken in the same sequence, the figures for `CCCCCCCCCC(=O)NS(=O)(=O)c1ccccc1NC(=O)c1cccc(OCc2ccc(Cl)cc2)c1` [Example 19, N-[2-[3-(4-Chlorobenzyloxy)benzamido]benzenesulfonyl]decanamide] were 159 to 161 °C, 83.3% and 90.5%.
Taken in the same sequence, the figures for `CCCCCCCCCC(=O)NS(=O)(=O)c1ccccc1NC(=O)c1cccc(OCc2ccc(C(C)(C)C)cc2)c1` [Example 31, N-[2-[3-(4-t-Butylbenzyloxy)benzamido]benzenesulfonyl]decanamide] were 132 to 133 °C, 67.6% and 66.4%.
In turn, `CCCCCCCCCC(=O)NS(=O)(=O)c1ccccc1NC(=O)c1cccc(OCc2ccc(C(F)(F)F)cc2)c1` [Example 34, N-[2-[3-(4-Trifluoromethylbenzyloxy)benzamido]benzenesulfonyl]decanamide] came in with a melting point of 164 °C. Further, the inhibition at 5.6 µM in data set [1] was 81.3%. Also, the inhibition at 30 µM in the data set on HepG2 cells came out at 87.7%.
`CCCCCCCCCC(=O)NS(=O)(=O)c1ccccc1NC(=O)c1cccc(OCc2ccccc2)c1` [Example 9, N-[2-(3-Benzyloxybenzamido)benzenesulfonyl]decanamide] yielded a melting point of 85 to 86 °C. Besides, the inhibition at 5.6 µM in data set [1] was 65%. In addition, in the data set on HepG2 cells, testing at 30 µM gave an inhibition of 86.8%.
`C/C=C/C=C/C(=O)NS(=O)(=O)c1ccccc1NC(=O)c1ccc(C#Cc2ccccc2)cc1` [Example 43, trans-N-[2-(4-Phenylethynylbenzamido)benzenesulfonyl]-2,4-hexadienamide] gave a melting point of 208 to 209 °C. Moreover, in data set [1], the inhibition at 5.6 µM was found to be 54.3%. The same molecule registered an inhibition at 30 µM in the data set with HepG2 cells of 92.3%.
Molecule `CCCCCCCCCC(=O)NS(=O)(=O)c1ccccc1NC(=O)c1ccc(C#Cc2ccccc2)cc1` [Example 40, N-[2-(4-Phenylethynylbenzamido)benzenesulfonyl]decanamide] registered a melting point of 155 to 156 °C. The molecule further gave an inhibition at 5.6 µM in data set [1] of 76%. In the data set with HepG2 cells, this molecule registered an inhibition at 30 µM of 57.4%.
In turn, `CCCCCC(=O)NS(=O)(=O)c1ccccc1NC(=O)c1cccc(OCc2ccc(C(C)(C)C)cc2)c1` [Example 30, N-[2-[3-(4-t-Butylbenzyloxy)benzamido]benzenesulfonyl]hexanamide] displayed a melting point of 163 to 164 °C. The same molecule had an inhibition at 5.6 µM in data set [1] of 53.2%. In addition, at 30 µM the inhibition in the data set on HepG2 cells was 87.1%.
For `CCCCCCCCCC(=O)NS(=O)(=O)c1ccccc1NC(=O)c1ccc([N+](=O)[O-])c(OCc2ccccc2)c1` [Example 16, N-[2-(3-Benzyloxy-4-nitrobenzamido)benzenesulfonyl]decanamide] the same measures were 129 to 130 °C, 79.9% and 94.3%.
For `CCCCCCCCCC(=O)NS(=O)(=O)c1ccccc1NC(=O)c1cccc(OCC2CCCCC2)c1` [Example 28, N-[2-(3-Cyclohexylmethoxybenzamido)benzenesulfonyl]decanamide] the same measures were 124 to 127 °C, 89.4% and 84.6%.
Take `CCCCCCCCCC(=O)NS(=O)(=O)c1ccccc1NC(=O)c1cccc(OCc2ccc(OC)cc2)c1` [Example 25, N-[2-[3-(4-methoxybenzyloxy)benzamido]benzenesulfonyl]decanamide]: the melting point was in the range of 148 to 149 °C. Also, in data set [1], at 5.6 µM the inhibition was 81.6%. Moreover, in the data set with HepG2 cells, the inhibition at 30 µM came to 92%.
Taken in the same sequence, the figures for `CCCCCCCCCC(=O)NS(=O)(=O)c1ccccc1NC(=O)c1cccc(OCCCCCCC)c1` [Example 37, N-[2-(3-Heptyloxybenzamido]benzenesulfonyl]decanamide] were 172 to 174 °C, 83.6% and 64.3%.
`CCCCCCCCCC(=O)NS(=O)(=O)c1ccccc1NC(=O)c1cccc(OCc2ccc([N+](=O)[O-])cc2)c1` [Example 22, N-[2-[3-(4-Nitrobenzyloxy)benzamido]benzenesulfonyl]decananide] registered a melting point of 145 to 148 °C. This molecule came in with an inhibition at 5.6 µM in data set [1] of 88.4%. The same molecule had an inhibition at 30 µM in the data set on HepG2 cells of 95.2%.
`CCCCC/C=C\C/C=C\CCCCCCCC(=O)NS(=O)(=O)c1ccccc1NC(=O)c1cccc(OCc2ccccc2)c1` [Example 15, N-[2-(3-Benzyloxybenzamido)benzenesulfonyl]linolamide] yielded an inhibition at 5.6 µM in data set [1] of 84.8%. In the data set with HepG2 cells, this molecule showed an inhibition at 30 µM of 30.6%.
Molecule `CC(C)(C)c1ccc(COc2cccc(C(=O)Nc3ccccc3S(=O)(=O)NC(=O)/C=C/c3ccccc3)c2)cc1` [Example 13, N-[2-[3-(4-t-Butylbenzyloxy)benzamido]benzenesulfonyl]cinnamamide] displayed a melting point of 110 to 111 °C. Further, the inhibition at 5.6 µM in data set [1] is 79.5%. Moreover, at 30 µM the inhibition in the data set on HepG2 cells was 38.1%.
`CCCCCC(=O)NS(=O)(=O)c1ccccc1NC(=O)c1cccc(OCc2ccc(C(F)(F)F)cc2)c1` [Example 33, N-[2-[3-(4-Trifluoromethylbenzyloxy)benzamido]benzenesulfonyl]hexanamide] yielded a melting point of 142 to 143 °C. This molecule gave an inhibition at 5.6 µM in data set [1] of 52.3%. Further, testing at 30 µM in the data set with HepG2 cells gave an inhibition of 97.5%.

Usually melting point stands for the temperature, or range, at which the solid turns liquid. What is called inhibition is the drop in the measured response relative to a control, in per cent. Higher therefore signals strong suppression.

The record behind these values is patent publication US20030162818A1, “Acylsulfonamide derivative” (AJINOMOTO CO. INC., priority 1997, published 2003).
